Results as given in patent publication US9526757B2, “Peptides that inhibit the interaction between ASF1 and histones, and use thereof” (COMMISSARIAT A L'ENERGIE ATOMIQUE ET AUX ENERGIES …, priority 2011, dated 2016).
Entries after “also recorded” stand apart in the source; their conditions may differ. Where two headings read alike, the source gives them in different places. Where no end group is shown, it is not given here.

Legend:
Asf1 1-156 = target: T1, Asf1 1-156 (Homo sapiens, UniProt Q9Y294); experiment: Calorimetry (ITC) of the interaction of peptides with Asf1 1-156; format: binding; conditions: for affinity for Asf1 compared with peptide i5: optimized sequences of i5; for binding to Asf1 (in words): control peptide mutated on three key residues
T1 construct: made in house
Procedure: FIG. 1: ITC curves of the interaction Asf1 1-156 (30 μM in A, 10 μM in B and C) with peptide i1 (A), i4 (B) and i5 (C). The peptide concentration used for this experiment is 0.5 mM for i1, and 0.16 mM for i4 and i5.
Human Asf1a and b proteins and the conserved N-terminal domain (1-156) of each of the isoforms were cloned into the vector peTM30. The unlabeled and ^15N and ^13C/^15N labeled recombinant proteins were purified according to the protocol of Mousson et al. (2004, Journal of Biomolecular NMR, 29(3): 413-414). The peptides were either produced by chemical synthesis ([…]), or cloned after gene synthesis ([…]) in the vector Gateway pDest 17 (Invitrogen), then purified according to the protocol of Mousson et al. (2005, Proc. Natl. Sci. USA, 102(17): p. 5975-5980).
All calorimetry experiments were carried out in 50 mM Tris buffer pH 7.4 at 5° C., unless otherwise indicated. Peptides were introduced in the syringe at a concentration of […] and Asf1 was added to the cuvette at a concentration of 30 μM or 10 μM. Calorimetry tests were also conducted at 25° C. or in 50 mM Tris buffer, 150 mM NaCl, pH 7.4 to obtain more detailed information on the characteristics of the interactions studied.

U2OS cells [1] = experiment: Toxicity test on U2OS cells transduced with peptides in the presence of pyrene butyrate; format: cell-based, human; conditions: 24 hours after transduction
Procedure: To optimize the internalization of the peptide, the transduction was performed in the presence of pyrene butyrate, according to the method proposed by Takeuchi et al. (ACS CHEMICAL BIOLOGY, 2006. 1(5): p. 299-303). […] RRP5-i1 is the peptide of SEQ ID NO: 60. RRP5-i5 is the peptide of SEQ ID NO: 66. This correlation between the affinity of the peptide for Asf1 and the induced cell toxicity was confirmed for another cell type (HeLa cells) and by using another protocol to measure cell survival, the MTT assay (FIG. 10).
To test the phenotypes induced by the peptide, a newly developed protocol for the “Cell Penetrating TAT” was used. The peptides were dissolved in PBS buffer containing […] and incubated with U2OS (or HeLa) cells for 4 minutes. Cells were then washed three times with PBS buffer, then taken up in culture medium containing fetal calf serum. Cell death was analyzed by FACS 24 to 48 hours later by propidium iodide incorporation or by an MTT assay (3-(4,5-dimethylthiazol-2-yl)-2,5-diphenyl tetrazolium bromide). (Mosmann, T. J. Immunol. Methods 65: 55-63, 1983).

U2OS cells [2] = experiment: Cell penetration test of FITC-labelled peptides by flow cytometry; format: cell-based, human; conditions: FITC label, 1 μM, 1 hour, FIG. 5
Procedure: The capacity of the peptide i42V (SEQ ID NO: 47) coupled either to the sequence TAT (peptide TAT-i42V, SEQ ID NO: 58) or to the sequence (RRP)5 (peptide RRP5-i42V, SEQ ID NO 59) was measured using these peptides coupled to an FITC label. The mean fluorescence of the cells was analyzed by flow cytometry (FIG. 5).
U2OS cells were incubated with culture medium supplemented with fluorescent peptide at a final concentration of 1 μM for 1 hour, then washed with PBS buffer and detached by addition of trypsin, washed with PBS buffer, then analyzed by flow cytometry (FACS).

Asf1-H3-H4 interaction = target: T2, Asf1-H3-H4 interaction (Homo sapiens, UniProt Q9Y294); experiment: Competition assay on GST column (peptide/histone competition in vitro, Western blot); format: binding; conditions: peptide 0.1 mM and 1 mM, FIG. 3
T2 construct: The human protein GST-Asf1 1-156 was produced; made in house
Procedure: To do this, GST beads linked to Asf1 were incubated with an excess of histones H3-H4, then washed and incubated with increasing concentrations of peptide. The eluted histones were analyzed by Western blot.
The human protein GST-Asf1 1-156 was produced and then incubated with GST beads (glutathione S transferase, Sigma). For each experiment, 40 μg of recombinant Asf1 fixed to agarose beads were incubated with 400 μg of histones. After washing with 50 mM Tris buffer, pH 8, 150 mM NaCl, 1 mM EDTA, 1 mM DTT, 0.5% NP40, the beads were incubated with different concentrations of peptide (0 to 1 mM) dissolved in the same buffer.

[3] = ITC, 50 mM Tris buffer pH 7.4 at 5° C., Asf1 1-156, read-out: Kd

T1 sequence (Q9Y294 1-156): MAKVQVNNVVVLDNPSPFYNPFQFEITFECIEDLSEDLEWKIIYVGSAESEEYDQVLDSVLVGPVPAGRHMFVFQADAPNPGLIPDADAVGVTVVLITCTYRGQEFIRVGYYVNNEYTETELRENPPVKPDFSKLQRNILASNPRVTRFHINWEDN
T2 sequence (Q9Y294 1-156): as above

| Substance | Kd (Asf1 1-156; [3]) [nM] | further results |
| --- | --- | --- |
| GAMGRVPPAVRKLGNASTERKWAELARRIRGAGGVTLNGFG [SEQ ID NO: 65] | 60 | – |
| ASTERKWAELARRIAGAGGVTLNGFG [SEQ ID NO: 79] | – | affinity for Asf1 compared with peptide i5 (Asf1 1-156): at least as good as that of peptide i5 |
| RRP5-i5mut: mutated version of RRP5-i5 carrying the (RRP)5 sequence, does not bind to Asf1; negative control (RRPRRPRRPRRPRRPASTERKWAEAARRARGAGGVTLNGAGGCA) | – | binding to Asf1 (in words) (Asf1 1-156): does not bind to Asf1; toxicity (in words) (U2OS cells [1]): no toxicity was seen |
| RRPRRPRRPRRPRRPGAMGTITPKEAQLARRIRGAGGVTLNGFGCA [SEQ ID NO: 50] | 420 | – |
| GAMGLTAAEHAKRSTLTPKEAQLARRIRGAGGVTLNGFG [SEQ ID NO: 52] | 30 | – |
| GAMGTIMPKDIQLARRIRGAGASRTLYGFG [SEQ ID NO: 39] | 350 | – |
| GAMGTITPKEEQLRRRIEGAGASVTLNGFG [SEQ ID NO: 46] | 420 | – |
| GAMGTIMPKDIQLARRIRG [SEQ ID NO: 70] | – | Kd (Asf1 1-156; unit inferred, read-out: affinity for Asf1): 8000 nM |
| GAMGTLTPKEAELARRIRGAGGVTLNGFG [SEQ ID NO: 48] | 60 | – |
| GAMGTITPKEAQLARRIRGAGGVTLNGFG [SEQ ID NO: 47] | 350 | – |
| RRPRRPRRPRRPRRPGAMGTITPKEAQLARRIRGAGGVTLNGFG [SEQ ID NO: 59] | – | penetration into cells (mean fluorescence) (U2OS cells [2]): penetrate more effectively than the penetration sequences alone |
| GAMGTLTPKEAELARRIRGAGGRTLNGFG [SEQ ID NO: 42] | 180 | – |
| GAMGTLTPKEAELARRIRGAGASRTLNGFG [SEQ ID NO: 43] | 350 | – |
| GAMGTRTPKERRLARRIRGAGGRTLNGFG [SEQ ID NO: 56] | 30 | – |
| GRKKRRQRRRGAMGTITPKEAQLARRIRGAGGVTLNGFG [SEQ ID NO: 58] | – | penetration into cells (mean fluorescence) (U2OS cells [2]): penetrate more effectively than the penetration sequences alone |
| ASTERKWAELARRIRGAGGRTLNGFG [SEQ ID NO: 77] | – | affinity for Asf1 compared with peptide i5 (Asf1 1-156): at least as good as that of peptide i5 |
| i5mut: control peptide, 90% identity with peptide i5, mutated to alanine on three key residues, no longer binds to Asf1 (ASTERKWAEAARRARGAGGVTLNGAG) [reference compound] | – | binding to Asf1 (in words) (Asf1 1-156): no longer binds to Asf1; also recorded: does not bind to Asf1; histones bound to or detached from GST-Asf1 beads (Asf1-H3-H4 interaction): the histones remain bound to Asf1 |
